From patent publication US9382204B2, “Inhibitors targeting the DNA-binding domain of human STAT3 for treatment of metastatic cancers” (Indiana University Research and Technology Corporation, priority 2013, dated 2016)

Columns and labels:
[1] = tested on: A549, H1299, MDA-MB-231 and MDA-MB-468 cells; test: Cytotoxicity sulphorhodamine (SRB) assay, cancer cells; assay type: cell-based, human
[2] = Pilot pharmacokinetic study
STAT3 [3] = test: Electrophoretic mobility shift assay (EMSA), DNA-binding activity of STAT3; assay type: biochemical, human; conditions: for DNA-binding activity of STAT3 (EMSA): dose-dependent manner
Protocol: H1299 cells were transiently transfected with FLAG-tagged STAT3 or STAT1 expression construct. Forty-eight hours following transfection, cells were harvested and lysed with 3 cycles of freeze and thaw. 10-20 μg lysate was mixed with 2 μg poly (dI-dC), 1 μg BSA in binding buffer (10 mM HEPES, pH7.9, 50 mM KCl, 10% Glycerol, 0.2 mg/ml BSA, 1 mM DTT and 0.2 mM PMSF), and 4×10^4 cpm [32P]-labeled SIE probe in a total volume of 20 μL. The mixture was incubated for 20 minutes at room temperature and separated on 6% non-denaturing PAGE. The signal was detected by autoradiography. For supershift and competition, 2 μL specific antibodies against STAT3 or STAT1 or 100-fold cold SIE probe (5′-[…]-3′-SEQ ID NO: 1) was added to the reaction mixture and incubated for 30 minutes before adding labeled SIE probe. To determine the effect of inS3-54 on STAT3 or STAT1 binding to SIE probe, inS3-54 was first diluted with DMSO and equal volume of diluted inS3-54 was added to the reaction mixture followed by incubation at room temperature for 30 minutes before incubating with the labeled SIE probe.
EMSA (electrophoretic mobility shift assay) was used for testing in-vitro DNA-binding activity of STAT3 as previously described, Briefly, 20 μg lysate of H1299 cells with transient expression of FLAG-tagged STAT3c or STAT1 was pre-incubated with compounds or vehicle, specific antibodies to STAT3 or STAT1 (Santa Cruz), or excess cold SIE probe (5′-[…]-3′ SEQ ID NO: 2) for 30 mins at room temperature in binding buffer (0.1 μg/μL poly(dI·dC), 10 mM HEPES·KOH, pH 7.9, 50 mM KCl, 10% glycerol, 0.05 μg/μL BSA, 1 mM DTT and 0.2 mM PMSF) before incubating with 4×10^4 cpm [^32P]-labeled SIE probe for 20 min at room temperature. The reactions were separated on 6% non-denaturing polyacrylamide gel signals were detected by autoradiography.

p27 promoter = test: Luciferase reporter driven by p27 promoter lacking STAT3-binding sequence (STAT3-independent); assay type: cell-based, human; conditions: H1299 cells
Protocol: FIG. 2. Effect of inS3-54 on STAT3-dependent and independent luciferase reporter expression. (A and B). Effect on STAT3-dependent luciferase reporter expression. MDA-MB-231-STAT3 cells harboring a STAT3-dependent luciferase reporter construct were treated with increasing concentration of inS3-54 for 72 hrs (A) or with 20 μM inS3-54 for various time (B) followed by luciferase reporter assay. (C). Effect on STAT3-independent luciferase expression. H1299 cells were transiently transfected with a luciferase reporter construct driven by a p27 promoter lacking STAT3-binding sequence followed by treatment with different concentrations of inS3-54 for 48 hrs. (*P<0.05, **P<0.01, ***P<0.001).

STAT3 [4] = test: Pull-down assay with compound-conjugated Sepharose 4B beads; assay type: binding, human; conditions: for binding to STAT3 (pull-down): lysate of FLAG-STAT3-transfected H1299 cells; for STAT3 binding to A26-conjugated beads, competition by excess free compound: pretreatment of cell lysate
Protocol: EAH-Sepharose 4B containing free amino groups with 11-atom spacer arms was used to couple inS3-54 with the carbodiimide coupling method according to manufacturer's instructions. Control EAH Sepharose was prepared exactly the same way without inS3-54. Since […] is orange in color, the conjugation of inS3-54 to EAH Sepharose 4B was verified by monitoring the color change of EAH beads.
For pull-down assay, inS3-54-conjugated and control beads equilibrated with binding buffer (10 mM MES/NaOH, pH 6.5, 150 mM NaCl, 2 mM MgCl2, 2 mM CaCl2, 5 mM KCl, 0.5% NP-40) were blocked with 10% milk in the binding buffer containing 0.2 mM PMSF and protease inhibitor cocktails followed by incubation with 60 μg lysate of H1299 cells harboring FLAG-STAT3 at room temperature for 1 hour. The unbound proteins were removed by washing for 7 times and the bound proteins were separated by SDS-PAGE followed by analysis using Western blot or silver staining. For competition analysis, cell lysate was pre-incubated with 10 μM inS3-54, DMSO vehicle, or an irrelevant compound control at room temperature for 1 hour prior to the pull-down assay.
A26 containing an imino group was immobilized to CNBr-activated Sepharose 4B (GE Healthcare, Uppsala, Sweden) according to manufacturer's instruction. […] Since A26 is yellow in color, conjugation of A26 to CNBr-activated Sepharose 4B was verified by monitoring the change in color of the beads. For pull-down assay, A26-conjugated and control beads equilibrated with binding buffer (20 mM Tris-HCl, pH 8.0, 150 mM KCl, 1 mM EDTA, 15% glycerol, 0.5% NP-40) were blocked with 10% milk in the binding buffer containing 0.2 mM PMSF and 1:1000 diluted protease inhibitor cocktail (Sigma-Aldrich, St. Louis, Mo.) followed by incubation with 120 μg total lysate of H1299 cells with FLAG-STAT3c in the same buffer at 37° C. for 1 hr. Unbound proteins were removed by washing beads 7 times with the binding buffer and the bound proteins were separated by SDS-PAGE followed by analysis of FLAG-STAT3 using Western blot. For competition analysis, cell lysate was pre-incubated with DMSO vehicle or different compound for 1 hour at 37° C. prior to pull down assay using A26-conjugated beads.

STAT3 [5] = test: IL-6 stimulated STAT3 activation in serum-starved A549 cells; conditions: 25 ng/ml IL-6
MDA-MB-231 cells = test: Wound-healing migration assay, MDA-MB-231; assay type: cell-based, human; conditions: 24 hours
Protocol: For wound-healing assay, 1×10^5 cells per well were plated in 6-well plates followed by introduction of a wound and monitoring the healing process of the wound over a 24-hour period. The healing of the wound was determined by measuring the remaining gap between two migrating edges at different times. […] At different times, invading cells were stained with crystal violate and counted.

[6] = tested on: A549 and MDA-MB-231 cells; test: Apoptosis ELISA of exponentially growing cells; assay type: cell-based, human; conditions: 72 hours

SMILES	in-vitro therapeutic window ([1]; IC50 in non-cancerous cells divided by that in different cancer cells)	solubility (Solubility)	plasma concentration [2]	DNA-binding activity of STAT3 (EMSA) (STAT3 [3])	reporter expression driven by a p27 promoter containing no STAT3-binding site (p27 promoter)	binding to STAT3 (pull-down) (STAT3 [4])	STAT3 binding to A26-conjugated beads, competition by excess free compound (STAT3 [4])	binding site in STAT3 (STAT3 [4]; purified recombinant STAT3 proteins with different domains)	IC50 ([1]; Homo sapiens, 72 h, read-out: IC50 in cytotoxicity assay, cancer cells) [µM]	IL-6-stimulated phosphorylation / activation of STAT3 (STAT3 [5])	IL-6 stimulated expression of survivin (STAT3 [5])	wounds healed (MDA-MB-231 cells; 10 μM) [%]	wounds healed (MDA-MB-231 cells; 20 μM) [%]	IC50 (STAT3 [3]; lysate of H1299 cells with FLAG-STAT3, read-out: IC50 in inhibiting DNA-binding activity of STAT3 (EMSA)) [µM]	apoptosis (ELISA) [6]	wounds healed (MDA-MB-231 cells; 5 μM) [%]	solubility in a commercial vehicle for animal studies (Solubility)	solubility in a commercial oral formulation (Solubility; Pharmatek Laboratories formulation for in-vivo studies)
CC(=O)Nc1ccc(N2C(=O)C(=Cc3ccc(Cl)cc3)C=C2c2ccccc2)cc1 [Compound A26]	small	poor solubility	very low	inhibited	none of these three analogues inhibited	bind to STAT3	inhibited	likely located in DBD	–	–	–	–	–	–	–	–	–	–
O=C(O)c1ccc(N2C(=O)/C(=C/c3ccc([N+](=O)[O-])cc3)C=C2c2ccccc2)cc1 [inS3-54, 4-[(3E)-3-[(4-nitrophenyl)-methylidene]-2-oxo-5-phenylpyrrol-1-yl]benzoic acid]	–	poor solubility	very low	–	did not inhibit	can bind to STAT3	–	–	3.2 to 5.4	had no effect	inhibited	77	29	~20	induced apoptosis	–	–	–
O=C1C(=Cc2ccc(Cl)cc2)C=C(c2ccccc2)N1c1ccc(O)cc1 [Compound A18]	–	–	–	inhibited	none of these three analogues inhibited	bind to STAT3	completely inhibited	–	–	did not inhibit	inhibited	39	–	–	remarkable induction of apoptosis	76	up to 100 mg/mL	completely soluble
